Results on 18 compounds are retold here after PMC6982996, “Discovery of [1,2,4]Triazole Derivatives as New Metallo-β-Lactamase Inhibitors” (Molecules, 2019).

Bounds are passed on as bounds.

Assay type in all cases: biochemical
One experiment has as its target T1, VIM-2 (Escherichia coli, UniProt Q5U7L7).
T1 construct: Li's Laboratory, Sichuan University (collaborator, a gift and not a purchase)
As to the kind of experiment: VIM-2 inhibition assay (FC5 fluorogenic substrate). The conditions noted are these: for inhibition at 10 µM / inhibition at 100 µM: mean ± SD (n = 3); for IC50: 10 concentrations in threefold dilution, triplicate, read-out: IC50 against VIM-2. Here is the method:
(§1) All the target compounds were freshly prepared in 100 mM DMSO stock solutions. All the MBL and SBL enzymes used in this study were obtained from our collaborator, Li’s Laboratory in Sichuan University. Each compound was initially evaluated for inhibitory activity to MBL and SBL enzymes at 100 and 10 μM, by preincubation with the appropriate amount of enzymes in the assay buffer for 10 min, followed by adding the substrate FC5 to initiate the reactions, and monitoring the fluorescence at λex of 380 nm and λem of 460 nm. The IC50 values for the compounds (with 10 different concentrations in threefold dilution) were further determined. All determinations were tested in triplicate. The IC50 values were obtained from the plot of activity versus inhibitor concentration by using the GraphPad Prism software.

Another experiment deals with T2, NDM-1 (Klebsiella pneumoniae, UniProt C7C422).
T2 construct: Li's Laboratory, Sichuan University (collaborator, a gift and not a purchase)
The experiment in a line: NDM-1 inhibition assay (FC5 fluorogenic substrate). Conditions: mean ± SD (n = 3). Here is the method:
(§2) Then, we tested all the target compounds against other B1 MBL enzymes, including NDM-1, IMP-1, VIM-1, and VIM-5 (Table 1); all the assay conditions (including enzyme/substrate concentrations) are the same as that previously used. […]. […].
as §1

The target of a further experiment is T3, IMP-1 (Serratia marcescens, UniProt P52699).
T3 construct: Li's Laboratory, Sichuan University (collaborator, a gift and not a purchase)
As to the kind of experiment: IMP-1 inhibition assay (FC5 fluorogenic substrate). The conditions noted are these: for inhibition at 10 µM / inhibition at 100 µM: mean ± SD (n = 3). Here is the method:
as §2, §1

The target in another experiment is T4, VIM-1 (Pseudomonas aeruginosa, UniProt A0A0F7KYQ8).
T4 construct: Li's Laboratory, Sichuan University (collaborator, a gift and not a purchase)
The experiment in a line: VIM-1 inhibition assay (FC5 fluorogenic substrate). The conditions noted are these: for inhibition at 100 µM: mean ± SD (n = 3). How it is done: as §2, §1

Another experiment deals with VIM-5. The experiment in a line: VIM-5 inhibition assay (FC5 fluorogenic substrate). The conditions noted are these: @ 100 μM; mean ± SD (n = 3). Here is the method: as §2, §1

T3 sequence (P52699 19-246 limits assumed): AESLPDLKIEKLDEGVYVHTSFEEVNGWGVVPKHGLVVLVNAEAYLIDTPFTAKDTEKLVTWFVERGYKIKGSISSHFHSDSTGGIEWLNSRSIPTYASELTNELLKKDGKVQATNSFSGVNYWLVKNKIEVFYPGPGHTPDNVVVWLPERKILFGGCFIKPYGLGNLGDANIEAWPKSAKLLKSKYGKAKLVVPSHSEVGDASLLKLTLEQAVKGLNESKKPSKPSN
T2 sequence (C7C422 29-270, looked up, species assumed): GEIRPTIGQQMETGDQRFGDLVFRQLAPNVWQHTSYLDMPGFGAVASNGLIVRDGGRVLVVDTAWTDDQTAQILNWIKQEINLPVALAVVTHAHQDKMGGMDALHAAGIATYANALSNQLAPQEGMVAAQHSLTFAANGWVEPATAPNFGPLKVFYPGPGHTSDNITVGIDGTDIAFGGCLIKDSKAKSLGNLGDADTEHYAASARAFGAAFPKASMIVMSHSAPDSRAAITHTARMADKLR

On to `O=C(O)c1ccccc1-c1nnc2n1CCCS2` [compound 14, 2-(6,7-Dihydro-5H-[1,2,4]triazolo[3,4-b][1,3]thiazin-3-yl)benzoic acid], for which the inhibition at 10 µM was 21% at VIM-2, 10% on NDM-1 and 18% on IMP-1. For the same compound, the inhibition at 100 µM against VIM-2 stood at 26 ± 2%; on NDM-1, 7 ± 1%; on IMP-1, 15 ± 2%; against VIM-1 it was 22 ± 3%. Besides, in the experiment on VIM-5, the “Inhibition % VIM-5” value was 11 ± 1/– %.

Take `c1ccc(-c2nnc3n2CCCS3)cc1` [5a, 3-Phenyl-6,7-dihydro-5H-[1,2,4]triazolo[3,4-b][1,3]thiazine]: the IC50 at VIM-2 is roughly 179 µM. Besides, the inhibition at 10 µM against VIM-2 is 17%; at NDM-1 it was 3%. The inhibition at 100 µM is roughly 50% against VIM-2, 29 ± 1% at NDM-1 and 29 ± 2% at VIM-1. The “Inhibition % VIM-5” value in the experiment with VIM-5 is reported as 1 ± 1/– %.

Take `FC(F)(F)c1ccc(-c2nnc3n2CCCS3)cc1` [5n, 3-(4-(Trifluoromethyl)phenyl)-6,7-dihydro-5H-[1,2,4]triazolo[3,4-b][1,3]thiazine]: the IC50 on VIM-2 was 53.2 µM; on VIM-1 (10 concentrations in threefold dilution, triplicate, read-out: IC50 against VIM-1), greater than 100 µM. For the same compound, the inhibition at 10 µM on VIM-2 is 43%; against NDM-1, 3%. Besides, the inhibition at 100 µM against VIM-2 was 82 ± 4%; against NDM-1, 8 ± 1%; on VIM-1, 61 ± 3%. In addition, in the experiment with VIM-5, the “Inhibition % VIM-5” value is −10 ± 2/– %.

Regarding `CC(C)(C)c1ccc(-c2nnc3n2CCCS3)cc1` [5o, 3-(4-(Tert-butyl)phenyl)-6,7-dihydro-5H-[1,2,4]triazolo[3,4-b][1,3]thiazine], the values for the inhibition at 10 µM at VIM-2, against NDM-1 and at IMP-1 were 22%, 9% and 15%, respectively. Moreover, the inhibition at 100 µM on VIM-2 was 23 ± 4%; on NDM-1 it was 11 ± 1%; against IMP-1, 63 ± 1%; against VIM-1, 27 ± 2%. In addition, at IMP-1 (10 concentrations in threefold dilution, triplicate, read-out: IC50 against IMP-1), the IC50 was greater than 100 µM. The “Inhibition % VIM-5” value with VIM-5 is listed as 15 ± 1/– %.

For `Clc1cccc(-c2nnc3n2CCCS3)c1` [5f, 3-(3-Chlorophenyl)-6,7-dihydro-5H-[1,2,4]triazolo[3,4-b][1,3]thiazine], the inhibition at 10 µM on VIM-2 was 16%; at NDM-1, 22%. Moreover, the inhibition at 100 µM on VIM-2 was 42 ± 2%; against NDM-1, 17 ± 1%; against VIM-1, 32 ± 1%. For the same compound, the “Inhibition % VIM-5” value in the experiment on VIM-5 was −9 ± 2/– %.

For the compound `Oc1ccccc1-c1nnc2n1CCCS2` [compound 6, 2-(6,7-Dihydro-5H-[1,2,4]triazolo[3,4-b][1,3]thiazin-3-yl)phenol], the IC50 at VIM-2 was greater than 100 µM. The inhibition at 10 µM against VIM-2 is 35%; against NDM-1, 21%; against IMP-1, 5%. Besides, the inhibition at 100 µM against VIM-2 came out at 57 ± 5%; against NDM-1, 26 ± 2%; against IMP-1 it was 30 ± 3%; against VIM-1 it was 25 ± 3%. Also, the “Inhibition % VIM-5” value in the experiment with VIM-5 is given as 10 ± 2/– %.

Turning to `COc1ccccc1-c1nnc2n1CCCS2` [5d, 3-(2-Methoxyphenyl)-6,7-dihydro-5H-[1,2,4]triazolo[3,4-b][1,3]thiazine], the inhibition at 10 µM was 16% against VIM-2 and 6% at NDM-1. The inhibition at 100 µM worked out at 39 ± 3% on VIM-2, 15 ± 1% against NDM-1 and 27 ± 2% at VIM-1. Further, the “Inhibition % VIM-5” value in the experiment on VIM-5 is 7 ± 1/– %.

Take `Cc1c(-c2nnc3n2CCCS3)cccc1[N+](=O)[O-]` [5p, 3-(2-Methyl-3-nitrophenyl)-6,7-dihydro-5H-[1,2,4]triazolo[3,4-b][1,3]thiazine]: the IC50 at VIM-2 worked out at 53.8 µM. Also, the inhibition at 10 µM on VIM-2 is 42%; at NDM-1, 22%; against IMP-1, -5%. The inhibition at 100 µM worked out at 71 ± 6% at VIM-2, 16 ± 2% on NDM-1, 10 ± 1% against IMP-1 and 19 ± 2% at VIM-1. In the experiment on VIM-5, the “Inhibition % VIM-5” value is reported as 15 ± 1/– %.

Consider `O=C(O)c1ccccc1-c1nnc2n1C(=O)CS2` [compound 15, 2-(5-Oxo-5,6-dihydrothiazolo[2,3-c][1,2,4]triazol-3-yl)benzoic acid], for which the results for the inhibition at 10 µM on VIM-2, on NDM-1 and at IMP-1 were 18%, 10% and 19%, respectively. Further, the inhibition at 100 µM stood at 21 ± 2% at VIM-2, 8 ± 1% against NDM-1, 13 ± 1% at IMP-1 and 25 ± 2% at VIM-1. Besides, the “Inhibition % VIM-5” value in the experiment with VIM-5 is given as 10 ± 2/– %.

Turning to `Cc1ccccc1-c1nnc2n1CCCS2` [5b, 3-(O-Tolyl)-6,7-dihydro-5H-[1,2,4]triazolo[3,4-b][1,3]thiazine], the inhibition at 10 µM at VIM-2 was 34%; at NDM-1 it was 27%; against IMP-1 it was 21%. Moreover, the inhibition at 100 µM against VIM-2 amounted to 45 ± 5%; against NDM-1, 32 ± 4%; against IMP-1 it was 25 ± 1%; at VIM-1 it was 21 ± 3%. Moreover, the “Inhibition % VIM-5” value in the experiment on VIM-5 is reported as 12 ± 2/– %.

For `c1ccc(-c2nnc3n2CCCS3)nc1` [5q, 3-(Pyridin-2-yl)-6,7-dihydro-5H-[1,2,4]triazolo[3,4-b][1,3]thiazine], the inhibition at 10 µM against VIM-2 is 26%; on NDM-1, 20%; on IMP-1, 3%. For the same compound, the inhibition at 100 µM against VIM-2 was found to be 45 ± 1%; on NDM-1, 11 ± 1%; at IMP-1, 9 ± 1%; against VIM-1 it was 19 ± 1%. Besides, the “Inhibition % VIM-5” value in the experiment with VIM-5 is on record as 14 ± 1/– %.

In the case of `Ic1cccc(-c2nnc3n2CCCS3)c1` [5h, 3-(3-Iodophenyl)-6,7-dihydro-5H-[1,2,4]triazolo[3,4-b][1,3]thiazine], the values for the inhibition at 10 µM against VIM-2 and against NDM-1 were 7% and 10%, respectively. The inhibition at 100 µM is 33 ± 2% on VIM-2, 9 ± 1% on NDM-1 and 27 ± 3% against VIM-1. Also, in the experiment on VIM-5, the “Inhibition % VIM-5” value is given as −5 ± 2/– %.

`Brc1ccccc1-c1nnc2n1CCCS2` [5c, 3-(2-Bromophenyl)-6,7-dihydro-5H-[1,2,4]triazolo[3,4-b][1,3]thiazine]: the results for the inhibition at 10 µM at VIM-2, at NDM-1 and on IMP-1 were 26%, 17% and 16%, respectively. Moreover, the inhibition at 100 µM against VIM-2 worked out at 43 ± 5%; on NDM-1, 8 ± 1%; at IMP-1, 15 ± 1%; against VIM-1, 19 ± 2%. Further, the “Inhibition % VIM-5” value in the experiment on VIM-5 is 13 ± 2/– %.

`CC(=O)Nc1ccc(Nc2ccc(-c3nnc4n3CCCS4)cc2)cc1` [5t, N-(4-((4-(6,7-dihydro-5H-[1,2,4]triazolo[3,4-b][1,3]thiazin-3-yl)phenyl)amino)phenyl)acetamide]: on VIM-2, the 50% inhibitory concentration (IC50) is greater than 100 µM, the inhibition at 10 µM was 40% and the inhibition at 100 µM came out at 75 ± 4%. For the same compound, at NDM-1, the inhibition at 10 µM was 13% and the inhibition at 100 µM was determined as 23 ± 2%. Moreover, the inhibition at 100 µM against VIM-1 turned out to be 14 ± 2%. For the same compound, the “Inhibition % VIM-5” value in the experiment on VIM-5 is reported as 31 ± 2/– %.

For `Ic1ccc(-c2nnc3n2CCCS3)cc1` [5m, 3-(4-Iodophenyl)-6,7-dihydro-5H-[1,2,4]triazolo[3,4-b][1,3]thiazine], on VIM-2, the IC50 is greater than 100 µM, the inhibition at 10 µM was 44% and the inhibition at 100 µM worked out at 78 ± 5%. In addition, on NDM-1, the inhibition at 10 µM is 4% and the inhibition at 100 µM is 1 ± 1%. In addition, the inhibition at 100 µM against VIM-1 worked out at 34 ± 1%. Further, the “Inhibition % VIM-5” value in the experiment with VIM-5 is listed as 2 ± 1/– %.

For the compound `FC(F)(F)c1cccc(-c2nnc3n2CCCS3)c1` [5i, 3-(3-(Trifluoromethyl)phenyl)-6,7-dihydro-5H-[1,2,4]triazolo[3,4-b][1,3]thiazine], the IC50 on VIM-2 was greater than 100 µM. The inhibition at 10 µM was 35% at VIM-2, 9% against NDM-1 and 11% against IMP-1. Further, the inhibition at 100 µM was 52 ± 4% against VIM-2, 26 ± 1% on NDM-1, 12 ± 1% on IMP-1 and 29 ± 3% on VIM-1. Besides, the “Inhibition % VIM-5” value in the experiment with VIM-5 is given as 21 ± 2/– %.

In the case of `c1coc(-c2nnc3n2CCCS3)c1` [10a, 3-(Furan-2-yl)-6,7-dihydro-5H-[1,2,4]triazolo[3,4-b][1,3]thiazine], the inhibition at 10 µM on VIM-2 was 22%; on NDM-1, 16%; on IMP-1, 6%. Besides, the inhibition at 100 µM at VIM-2 is 32 ± 4%; against NDM-1, 15 ± 1%; at IMP-1, 5 ± 1%; against VIM-1, 24 ± 3%. In the experiment on VIM-5, the “Inhibition % VIM-5” value is 11 ± 1/– %.

With `c1ccc(Cc2nnc3n2CCCS3)cc1` [5r, 3-Benzyl-6,7-dihydro-5H-[1,2,4]triazolo[3,4-b][1,3]thiazine], the figures for the inhibition at 10 µM at VIM-2 and against NDM-1 were 6% and 9%, respectively. In addition, the inhibition at 100 µM was 21 ± 3% on VIM-2, 4 ± 1% on NDM-1 and 25 ± 2% against VIM-1. For the same compound, in the experiment on VIM-5, the “Inhibition % VIM-5” value was 8 ± 1/– %.

The inhibition is the change of the read-out against control, counted positive when it falls. As a reminder, the IC50 is the point on the concentration scale where inhibition reaches its midpoint.
